Here are results for one compound from patent publication US11534114B2, “18F labeled amino acids, derivatives thereof and method of making same” (SIMON FRASER UNIVERSITY, priority 2016, dated 2022).

The test system of the series is U-87 tumor. Briefly: Dynamic PET/CT time-activity curves of accumulation in selected organs. The series is classed as in vivo, mice. As to conditions: time-activity curves (FIG. 41).

For `CC(C)([18F])CC[C@H](N)C(=O)O` [5-[^18F]FHL, 5-[^18F]fluorohomoleucine], the “course of activity in U-87 tumor and pancreas after the peak” value (after peak accumulation) is reported as “slow progressive efflux”. Also, the “time of peak accumulation in the U-87 tumor and pancreas” value (intravenous injection, mice bearing U-87 xenograft, 60 min dynamic scan) was under 10 min.
